# Laboratory results: patent US9265771B2, “Method for treating Lyme disease” (Zoetis Services LLC, priority 2012, dated 2016)
# Assays:
# Type in all cases: in vivo, beagle dogs
# B. burgdorferi [1] = assay: Study B: SNAP-4Dx ELISA in tick-infected dogs; conditions: N = 8/group
# Description: (§1) Three outer surface proteins (Osp) on B. burgdorferi are important for diagnosis and prevention, and are expressed by the organism in response to its local environment. […] OspF is another surface protein that is generally observed in late-stage disease. The C in […] refers to a 25-amino acid, C6 peptide in the sixth invariable region of an outer membrane lipoprotein (VIsE). Antibody against C6 is highly accurate as a serologic diagnosis of Lyme disease independent of a subject's (e.g., canine) vaccination status. Further, the generation of C6 antibodies implies an active infection with viable spirochetes. Serological methods for detecting B. burgdorfer/Lyme disease were conducted using the IDEXX qualitative SNAP-4Dx ELISA and the Quantitative C6 (Quant C6 or QC6) diagnostic kits, which are enzyme linked immunosorbent assays against the previously described 25-amino-acid C6 peptide. QC6 ELISA data, units/mL, are useful for guidance in initiating and evaluating response to therapy (See Levy S A, O'Connor T P, Hanscom J L, Shields P, et al. Quantitative measurement of a C6 antibody following antibiotic treatment of Borrelia burgdorferi antibody-positive, nonclinical dogs. Clin Vacc Immunol 2008; 15(1):115-119 and Littman M P, Goldstein R E, Labato M A, et al. ACVIM Small Animal Concensus Statement on Lyme Disease in Dogs: Diagnosis, Treatment and Prevention. J Vet Intern Med 2006; 20: 422-434).
# (§2) Thirty-two (18 male and 14 female) beagle dogs were sero-negative for Borrelia burgdorferi, not vaccinated with any Borrelia spp vaccines, and acclimated at the study facility for seven days. The study was conducted under National Research Council guidelines (1996). […] Field-caught Ixodes from the northeast USA were placed on the dogs without containment chambers for 10 days; after ticks fed to repletion, dogs were treated with two applications of an approved topical acaricide with a 30-day interval between applications.
# (§3) Forty days post-challenge, and prior to antibiotic treatments, blood was collected from each dog as were two skin biopsy punch samples near tick attachment sites. Blood was collected approximately monthly post-treatment. Skin biopsies were taken near the tick attachment site on Days 48/49, 118, 146, 180, and 315. Serum antibodies to Borrelia were assayed using the IDEXX SNAP-4Dx and QC6 ELISA. In cooperation with Cornell University, serum samples were analyzed using fluorescent-bead-based multiplex assays detecting antibodies against B. burgdorferi outer surface proteins OspA, OspC, and OspF. Data were expressed as median fluorescent intensities (MFI), and shown to be specific and sensitive to provide interpretative guidelines regarding infection. The skin biopsies were collected for a polymerase chain reaction (PCR; FlaB) assay and cultured for spirochete detection. At the end of the study, blood and skin biopsies were collected and synovial tissue from the joints were harvested at necropsy.
# (§4) On Day 75 and Day 89 Convenia was administered to the eight dogs in T04 (8 mg/kg bodyweight; subcutaneous injection). The other treated groups received their respective regimens daily and orally for 30 days from Days 75 to 104. […] Dogs in T01 served as infected, untreated, controls. Inter-treatment comparisons to evaluate antibiotic efficacy included clinical signs, serology, culture results and pathology.
# [2] = tested on: B. burgdorferi outer surface protein OspF; assay: Study B: fluorescent-bead-based multiplex assay, antibodies against OspF; conditions: for Multiplex Assay OspF: No. Dogs > Positive Threshold (# dogs > 1500): 8 dogs/group
# Experimental: as §2
# as §3, with “Data were expressed as median fluorescent intensities (MFI), and shown to be specific and sensitive to provide interpretative guidelines regarding infection.” left out
# On Day 75 and Day 89 Convenia was administered to the eight dogs in T04 (8 mg/kg bodyweight; subcutaneous injection). The other treated groups received their respective regimens daily and orally for 30 days from Days 75 to 104. […] Dogs in T01 served as infected, untreated, controls.
# B. burgdorferi [3] = assay: Study B: microscopic examination of joints and skin at necropsy; conditions: for Number of Joints with Changes as Described for Lyme disease: N = 8
# Experimental: as §2, §3, §4
# At necropsy ten joints were harvested per each dog, formalin-fixed, stained and examined microscopically. Joints included the carpus, elbow, shoulder, stifle and tarsus on both the right and left limbs. Further, a section of skin near tick attachment sites was evaluated from each dog. There were two dogs in the Convenia group (25%) with tissues showing changes as described for Lyme disease, compared to seven controls (87.5%) and three (37.5%) to four (50.0%) dogs in the other antibiotic-treated groups (Table 7). […] The Convenia group had the lowest incidence of joint changes with six affected of 80.
# B. burgdorferi [4] = assay: Study B: QC6 ELISA in tick-infected dogs; conditions: 8 dogs/group
# Description: as §1, §2, §3, §4
# [5] = joints, skin, 8 dogs/group, necropsy
smiles,measurement,setting,value
C[C@H]1c2cccc(O)c2C(=O)C2=C(O)[C@]3(O)C(=O)C(C(N)=O)=C(O)[C@@H](N(C)C)[C@@H]3[C@@H](O)[C@@H]21 [doxycycline],"SNAP-4Dx Positives, Number of Dogs",B. burgdorferi [1]; Day 48 (pre-treatment; antibiotics from Day 75),6
same,"SNAP-4Dx Positives, Number of Dogs",B. burgdorferi [1]; Day 111,7
same,"SNAP-4Dx Positives, Number of Dogs",B. burgdorferi [1]; Day 145,6
same,"SNAP-4Dx Positives, Number of Dogs",B. burgdorferi [1]; Day 179,1
same,"SNAP-4Dx Positives, Number of Dogs",B. burgdorferi [1]; Day 221,0
same,"SNAP-4Dx Positives, Number of Dogs",B. burgdorferi [1]; Day 251,0
same,"SNAP-4Dx Positives, Number of Dogs",B. burgdorferi [1]; Day 281,0
same,"SNAP-4Dx Positives, Number of Dogs",B. burgdorferi [1]; Day 315,0
same,"SNAP-4Dx Positives, Number of Dogs",B. burgdorferi [1]; Day −15 (pre-infection),0
same,Multiplex Assay OspF: MFI Mean,[2]; Day 48 (pre-treatment),943.38 MFI
same,Multiplex Assay OspF: No. Dogs > Positive Threshold (# dogs > 1500),[2]; Day 48 (pre-treatment),1
same,Multiplex Assay OspF: MFI Mean,[2]; Day 111,1174.38 MFI
same,Multiplex Assay OspF: No. Dogs > Positive Threshold (# dogs > 1500),[2]; Day 111,1
same,Multiplex Assay OspF: MFI Mean,[2]; Day 145,490.63 MFI
same,Multiplex Assay OspF: No. Dogs > Positive Threshold (# dogs > 1500),[2]; Day 145,0
same,Multiplex Assay OspF: MFI Mean,[2]; Day 179,395.88 MFI
same,Multiplex Assay OspF: No. Dogs > Positive Threshold (# dogs > 1500),[2]; Day 179,0
same,Multiplex Assay OspF: MFI Mean,[2]; Day 221,334.75 MFI
same,Multiplex Assay OspF: No. Dogs > Positive Threshold (# dogs > 1500),[2]; Day 221,0
same,Multiplex Assay OspF: MFI Mean,[2]; Day 251,340.88 MFI
same,Multiplex Assay OspF: No. Dogs > Positive Threshold (# dogs > 1500),[2]; Day 251,0
same,Multiplex Assay OspF: MFI Mean,[2]; Day 281,343.63 MFI
same,Multiplex Assay OspF: No. Dogs > Positive Threshold (# dogs > 1500),[2]; Day 281,0
same,Multiplex Assay OspF: MFI Mean,[2]; Day 314,353.25 MFI
same,Multiplex Assay OspF: No. Dogs > Positive Threshold (# dogs > 1500),[2]; Day 314,0
same,Multiplex Assay OspF: MFI Mean,[2]; Day −15 (pre-infection),113.50 MFI
same,Multiplex Assay OspF: No. Dogs > Positive Threshold (# dogs > 1500),[2]; Day −15 (pre-infection),0
same,"Number of Joints with Changes as Described for Lyme disease, Cumulative",B. burgdorferi [3]; 80 total/group,11
same,Number of Joints with Changes as Described for Lyme disease,B. burgdorferi [3]; Carpus L,1
same,Number of Joints with Changes as Described for Lyme disease,B. burgdorferi [3]; Carpus R,2
same,Number of Joints with Changes as Described for Lyme disease,B. burgdorferi [3]; Elbow L,1
same,Number of Joints with Changes as Described for Lyme disease,B. burgdorferi [3]; Elbow R,1
same,Number of Joints with Changes as Described for Lyme disease,B. burgdorferi [3]; Shoulder L,1
same,Number of Joints with Changes as Described for Lyme disease,B. burgdorferi [3]; Shoulder R,0
same,Number of Joints with Changes as Described for Lyme disease,B. burgdorferi [3]; Stifle L,1
same,Number of Joints with Changes as Described for Lyme disease,B. burgdorferi [3]; Stifle R,2
same,Number of Joints with Changes as Described for Lyme disease,B. burgdorferi [3]; Tarsus L,2
same,Number of Joints with Changes as Described for Lyme disease,B. burgdorferi [3]; Tarsus R,0
same,"No Tissue Changes, # Dogs",B. burgdorferi [3]; [5],5
same,"No Tissue Changes, %",B. burgdorferi [3]; [5],62.5%
same,"Tissue Changes Described for Lyme Disease, # Dogs",B. burgdorferi [3]; [5],3
same,"Tissue Changes Described for Lyme Disease, %",B. burgdorferi [3]; [5],37.5%
same,"Dogs Sero-converted to B. burgdorferi per QC6 ELISA (≧30 U/mL), (%)",B. burgdorferi [4]; Day 48 (pre-treatment),75.0%
same,"Number of Dogs Sero-converted to B. burgdorferi per QC6 ELISA (≧30 U/mL), No.",B. burgdorferi [4]; Day 48 (pre-treatment),6
same,"Dogs Sero-converted to B. burgdorferi per QC6 ELISA (≧30 U/mL), (%)",B. burgdorferi [4]; Day 111,62.5%
same,"Number of Dogs Sero-converted to B. burgdorferi per QC6 ELISA (≧30 U/mL), No.",B. burgdorferi [4]; Day 111,5
same,"Dogs Sero-converted to B. burgdorferi per QC6 ELISA (≧30 U/mL), (%)",B. burgdorferi [4]; Day 145,0.0%
same,"Number of Dogs Sero-converted to B. burgdorferi per QC6 ELISA (≧30 U/mL), No.",B. burgdorferi [4]; Day 145,0
same,"Dogs Sero-converted to B. burgdorferi per QC6 ELISA (≧30 U/mL), (%)",B. burgdorferi [4]; Day 179,0.0%
same,"Number of Dogs Sero-converted to B. burgdorferi per QC6 ELISA (≧30 U/mL), No.",B. burgdorferi [4]; Day 179,0
same,"Dogs Sero-converted to B. burgdorferi per QC6 ELISA (≧30 U/mL), (%)",B. burgdorferi [4]; Day 221,0.0%
same,"Number of Dogs Sero-converted to B. burgdorferi per QC6 ELISA (≧30 U/mL), No.",B. burgdorferi [4]; Day 221,0
same,"Dogs Sero-converted to B. burgdorferi per QC6 ELISA (≧30 U/mL), (%)",B. burgdorferi [4]; Day 251,0.0%
same,"Number of Dogs Sero-converted to B. burgdorferi per QC6 ELISA (≧30 U/mL), No.",B. burgdorferi [4]; Day 251,0
same,"Dogs Sero-converted to B. burgdorferi per QC6 ELISA (≧30 U/mL), (%)",B. burgdorferi [4]; Day 281,0.0%
same,"Number of Dogs Sero-converted to B. burgdorferi per QC6 ELISA (≧30 U/mL), No.",B. burgdorferi [4]; Day 281,0
same,"Dogs Sero-converted to B. burgdorferi per QC6 ELISA (≧30 U/mL), (%)",B. burgdorferi [4]; Day 314,0.0%
same,"Number of Dogs Sero-converted to B. burgdorferi per QC6 ELISA (≧30 U/mL), No.",B. burgdorferi [4]; Day 314,0
